Reference: US7576059B2, “Peptide derivatives” (Novo Nordisk A/S, priority 1995, dated 2009)
Residues, ends and D or L forms follow the SMILES beside them.

Assay: Determination of lipophilicity relative to human insulin (k′rel) by RP-HPLC
Assay type: physicochemical
Conditions: pH 7.3
Procedure: The lipophilicity of peptides and peptide derivatives relative to human insulin, k′rel, was measured on a LiChrosorb RP18 (5 μm, 4×250 mm) HPLC column by isocratic elution at 40° C. using mixtures of A) 0.1 M sodium phosphate buffer, pH 7.3, containing 10% acetonitrile, and B) 50% acetonitrile in water as eluents. The elution was monitored by following the UV absorption of the eluate at 214 nm. Void time, t0, was found by injecting 0.1 mM sodium nitrate. Retention time for human insulin, tinsulin, was adjusted to at least 2t0 by varying the ratio between the A and B solutions. k′rel=(tderivative−t0)/(tinsulin−t0).

| Compound | lipophilicity relative to human insulin, k′rel | lipophilicity relative to human insulin, k′rel (LiChrosorb RP18 HPLC, isocratic, 40° C., k′rel=(tderivative−t0)/(tinsulin−t0)) |
| --- | --- | --- |
| CCCC[C@H](NC=O)C(=O)N[C@@H](CC(C)C)C(=O)N[C@@H](Cc1ccccc1)C(=O)N[C@@H](CCCC)C(=O)N[C@@H](Cc1ccc(O)cc1)C(=O)N[C@@H](CCCCN)C(=O)O [For-Nle-Leu-Phe-Nle-Tyr-Lys-OH] (HELM PEPTIDE1{[O=C[*:2]].[Nle].L.F.[Nle].Y.K}$$$$V2.0) | 2.3 | – |
| CC(C)C[C@H](NC(=O)[C@H](Cc1ccccc1)NC(=O)CNC(=O)[C@@H](C)NC(=O)[C@@H](N)Cc1ccc(O)cc1)C(=O)N[C@@H](CCCCN)C(=O)O [H-Tyr-D-Ala-Gly-Phe-Leu-Lys-OH] (HELM PEPTIDE1{Y.[dA].G.F.L.K}$$$$V2.0) | – | 3.0×10^−3 |
